Tests used:
Type in all cases: in vivo
[1] = test system: Nox1; assay: Nox1 immunostaining in rat SN after striatal 6-OHDA
Protocol: The experiments were carried out on rats, in accordance with the NIH Guide for the Care and Use of Laboratory Animals. All procedures were approved by the local Animal Care and Use Committee. Female Sprague Dawley (SD) rats (Charles River; 8-weeks-old at the time of the beginning of AAV expression or 6-OHDA treatment, 2 or 3 per cage) were maintained in a temperature/humidity-controlled environment under a 12 h light/dark cycle with free access to food and water. All rats were respectively allocated into […], Nox1 shRNA/AAV, T17N Rac1/AAV, and scramble (scb) shRNA/AAV or empty vector/AAV as control groups. […]
Free-floating sections (40 μm) were washed in 0.1 M PBS, incubated in 0.1 M PBS containing 5% normal donkey serum and 0.3% TritonX-100 for 1 h, and subsequently incubated overnight with primary antibodies (TH, 1:2,000; Nox1, 1:200; GFAP, 1:500; CD11b, 1:200) in 2% normal donkey serum in PBS at 4° C. and incubated in a 1:200 dilution of AlexaFluor conjugated donkey anti-rabbit (546) or donkey anti-mouse (488) antibodies for 1 h at room temperature, washed with PBS, incubated in TOTO-3 (1:1,000) in 0.1 M PBS for 5 min, and then mounted sequentially in glass slides using Vectashield. Mounted slices were evaluated for fluorescence under settings for 546, 488, and 660 nm emissions on a confocal microscope (Leica TCS SP5).

[2] = test system: rat SN; assay: Immunohistochemistry of SN sections, PQ rat model
Protocol: The experiments were performed on rats, in accordance with the National Institutes for Health Guide for the Care and Use of Laboratory Animals. All procedures were approved by the local Animal Care and Use Committee. Male Wistar rats (8-10 weeks; Charles River) were maintained in a temperature/humidity-controlled environment under a 12 h light/dark cycle with ad libitum access to food and water. As depicted in FIG. 13A, each animal received four intraperitoneal injections, separated by 1 d, of either vehicle (saline) or PQ (10 mg/kg body weight; b.w.), according to a previously published dose (Manning-Bog et al., 2002; Harraz et al., 2008; Cristovao et al., 2009). All animals were weighed at day 1 and 12. In the studies using the paradigm depicted in FIG. 13A, 4 weeks before starting PQ intraperitoneal injection, animals were stereotaxically injected with various viral constructs at the right SN using the following coordinates: mediolateral, +2.0; anteroposterior, −5.3; dorsoventral, −6.8. Animals were organized into four groups: vector+vehicle: stereotaxically injected with adeno-associated virus (AAV) particles containing a green fluorescent protein (GFP) vector (vector) and then intraperitoneally injected with saline (vehicle) (n=10); vector+PQ: stereotaxically injected with vector and then intraperitoneally injected with PQ (n=10); shNox1+PQ: stereotaxically injected with AAV particles harboring Nox1 shRNA and then intraperitoneally injected with PQ (n=10); shNox1+vehicle: stereotaxically injected with Nox1 shRNA and then intraperitoneally injected with vehicle (n=8). AAV containing GFP vector was used as a negative control. Five days after the last PQ intraperitoneal injection, animals were killed. For Western blot analysis, brains were collected and total protein lysates from SN were prepared. For immunohistochemical analysis, animals were intracardially perfused before collecting the brains.
Following perfusion with saline and 4% PFA in PBS, brains were removed, and forebrain and midbrain blocks were immersion fixed in 4% PFA and cryoprotected in sucrose. Serial coronal sections (40 μm) were cut on a cryostat, collected in cryopreservative solution, and stored at −20° C. For immunolabeling studies, sections were incubated at room temperature with blocking solution for 1 h (5% FBS and 0.3% Triton X-100 in PBS, pH 7.5) and then with primary antibodies overnight. Finally, sections were incubated with secondary antibodies in blocking solution at room temperature for 1 h. The primary antibodies used were mouse anti-TH (1:10,000), rabbit anti-Nox1 (1:500), goat anti-4-HNE (1:700), mouse anti-ubiquitin (1:250), rabbit anti-α-synuclein (1:150), and rabbit anti-A11 oligomers (2.5 μg/ml). The secondary antibodies were biotinylated anti-rabbit IgG, anti-goat IgG, or anti-rat IgG (1:200). The staining procedure was performed as indicated by the manufacturer of the Vectastain ABC kit and the reaction product visualized using 3,3′-diaminobenzidine (DAB) reagent in TBS containing 0.02% H2O2. The numbers of TH-immunoreactive cells in the SN were counted using an optical fractionator. Analysis was performed using a system consisting of a Nikon Eclipse E600 microscope (Morrell Instruments) equipped with a computer-controlled LEP BioPoint motorized stage (Ludl Electronic Products), a DEI-750 video camera (Meyer Instruments), a Dell Dimension 4300 computer (Dell), and the Stereo Investigator (v. 4.35) software program (Microbrightfield).
Immunocytochemistry for proteinase K (PK)-resistant α-synuclein was performed based on a methodology reported previously (Neumann et al., 2002), with some modifications. Briefly, fixed cells were permeabilized with 0.1% Tween 20 and then digested for 30 min at 37° C. with PK (10 μg/ml). PK was inactivated with 3 M guanidine thiocyanate in 10 mM Tris-HCl solution for 10 min. Between each step, cells were washed gently three times with PBS. […]

[3] = test system: SN dopaminergic neurons; assay: Stereological count of TH-positive dopaminergic neurons in the SN, PQ rat model; settings: vector+PQ group, or Nox1 shRNA+PQ group
Protocol: The experiments were performed on rats, in accordance with the National Institutes for Health Guide for the Care and Use of Laboratory Animals. All procedures were approved by the local Animal Care and Use Committee. Male Wistar rats (8-10 weeks; Charles River) were maintained in a temperature/humidity-controlled environment under a 12 h light/dark cycle with ad libitum access to food and water. As depicted in FIG. 13A, each animal received four intraperitoneal injections, separated by 1 d, of either vehicle (saline) or PQ (10 mg/kg body weight; b.w.), according to a previously published dose (Manning-Bog et al., 2002; Harraz et al., 2008; Cristovao et al., 2009). All animals were weighed at day 1 and 12. In the studies using the paradigm depicted in FIG. 13A, 4 weeks before starting PQ intraperitoneal injection, animals were stereotaxically injected with various viral constructs at the right SN using the following coordinates: mediolateral, +2.0; anteroposterior, −5.3; dorsoventral, −6.8. […]
Following perfusion with saline and 4% PFA in PBS, brains were removed, and forebrain and midbrain blocks were immersion fixed in 4% PFA and cryoprotected in sucrose. […] The numbers of TH-immunoreactive cells in the SN were counted using an optical fractionator. […]

Row | Compound | Nox1 expression in the substantia nigra vs vehicle ([1]; 3 days after striatal injection) | TH-positive neurons showing Nox1 nuclear staining ([1]; rat SN after 6-OHDA administration) | immunoreactivity of A11 oligomers in the SN ([2]; PQ, PQ with Nox1 knocked down) | α-Synuclein immunoreactivity in the SN ([2]; rats, PQ vs vehicle) | 4-HNE immunoreactivity (lipid peroxidation) in the SN ([2]; rats, PQ vs vehicle, Nox1 shRNA+PQ vs PQ) | Nox1 immunoreactivity in the SN ([2]; rats, PQ vs vehicle, Nox1 shRNA+PQ vs vector+PQ) | PK-resistant α-synuclein immunoreactivity in the rat SN ([2]; vector+PQ vs vector+vehicle, Nox1 shRNA+PQ) | ubiquitin immunoreactivity in the rat SN ([2]; vector+PQ, Nox1 shRNA+PQ) | dopaminergic neuronal loss (stereological count of TH-positive neurons) [3]
1 | NCCc1cc(O)c(O)cc1O [6-OHDA, 6-hydroxydopamine] | significant increase | About 75% | – | – | – | – | – | – | –
2 | C[n+]1ccc(-c2cc[n+](C)cc2)cc1 [PQ, paraquat] | – | – | significant increase | increased | increase | upregulation | increase | significant increase | 37%
